Test results from patent US9446071B2, “Antimicrobially active compositions based on zinc compound, glycerine monoalkyl ether and antioxidant” (L'AIR LIQUIDE SOCIETE ANONYME POUR L'ETUDE ET …, priority 2012, dated 2016).

System: Streptococcus mutans ATCC: 25175
Experiment: Minimal inhibitory concentration (method C) of mouthwash formulations
Assay type: cell-based
Settings: pH 4
Experimental: The minimal inhibitory concentration which is required by a preparation in order to inhibit the growth of a defined microorganism is tested.
5 ml of the given product test solution (optionally doubly concentrated) is mixed with 5 ml of doubly concentrated CSS broth. The tubes are then inoculated with 0.1 ml of a test suspension containing 10^8 microbes.
The assessment is performed after 48 hr incubation at 36° C.±1° C. (C. albicans 30° C.±1° C.).
Further, the action of combinations according to the invention against the caries-causing organism Streptococcus mutans in the mouthwash formulations shown in Table 10 was tested.
The pH of the formulations was adjusted to pH 4.

Molecule | Activity against Streptococcus mutans
O=C([O-])CC(O)(CC(=O)[O-])C(=O)[O-].O=C([O-])CC(O)(CC(=O)[O-])C(=O)[O-].[Zn+2].[Zn+2].[Zn+2] [TZC, trizinc citrate] | not sufficient
PEG-40 macrogol glycerol hydroxystearate [Mghs] | no intrinsic activity
